Experiments:
[1] = molecular target: T1, B1R receptor of the rat (rB1R) (Rattus norvegicus, UniProt P97583); experiment: FLIPR Ca2+ assay on rB1R-transfected CHO K1 cells, antagonistic action; assay type: cell-based; settings: CHO-K1, 10 μM test substance; agonist Des-Arg9-bradykinin 100 nM; % of maximum achievable inhibition; read-out: rB1R [10 μM] % inhibition
T1 construct: host or cells: CHO K1 cells
T1 sequence (P97583 1-337): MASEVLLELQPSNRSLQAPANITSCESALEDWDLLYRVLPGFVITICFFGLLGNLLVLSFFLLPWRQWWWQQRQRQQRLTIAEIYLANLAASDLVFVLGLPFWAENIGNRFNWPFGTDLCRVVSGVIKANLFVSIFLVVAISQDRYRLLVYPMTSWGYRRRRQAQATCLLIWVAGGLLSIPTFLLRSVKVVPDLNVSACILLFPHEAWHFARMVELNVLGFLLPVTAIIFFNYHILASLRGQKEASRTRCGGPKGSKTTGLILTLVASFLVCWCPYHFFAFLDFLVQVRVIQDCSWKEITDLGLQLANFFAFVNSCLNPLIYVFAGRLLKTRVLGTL

[2] = molecular target: T2, human B1R receptor (hB1R) (Homo sapiens, UniProt P46663); experiment: FLIPR Ca2+ assay on hB1R-transfected CHO K1 cells, antagonistic action; assay type: cell-based; settings: CHO-K1, 10 μM test substance; agonist Lys-Des-Arg9-bradykinin 0.5 nM; % of maximum achievable inhibition; read-out: hB1R [10 μM] % inhibition
T2 construct: host or cells: CHO K1 cells
T2 sequence (P46663 1-353): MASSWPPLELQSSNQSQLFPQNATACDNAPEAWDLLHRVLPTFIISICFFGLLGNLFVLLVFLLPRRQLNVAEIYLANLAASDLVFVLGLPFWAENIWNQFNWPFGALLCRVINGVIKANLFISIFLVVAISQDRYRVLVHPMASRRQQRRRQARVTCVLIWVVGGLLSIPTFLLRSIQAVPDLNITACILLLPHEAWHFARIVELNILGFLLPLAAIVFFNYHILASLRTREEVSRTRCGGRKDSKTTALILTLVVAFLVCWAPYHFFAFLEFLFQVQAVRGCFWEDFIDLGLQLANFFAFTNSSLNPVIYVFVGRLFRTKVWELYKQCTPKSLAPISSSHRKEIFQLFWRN

COc1cc(C)c(S(=O)(=O)N(C)CCOCC(=O)N2CCC(c3ccccc3)(N3CCN(c4ccncc4)CC3)CC2)c(C)c1 [Compound 69, 4-methoxy-N,2,6-trimethyl-N-(2-(2-oxo-2-(4-phenyl-4-(4-(pyridin-4-yl)piperazin-1-yl)piperidin-1-yl)ethoxy)ethyl)benzenesulfonamide]
inhibition at 10 µM [1]: 99% | inhibition at 10 µM [2]: 102%

COc1cc(C)c(S(=O)(=O)N2CCCCC2COCC(=O)NC2CCC(Cc3ccccc3)(N3CCCC3)CC2)c(C)c1 (centres unmarked) [Compound 149, N-(4-benzyl-4-(pyrrolidin-1-yl)cyclohexyl)-2-((1-(4-methoxy-2,6-dimethylphenylsulfonyl)piperidin-2-yl)methoxy)acetamide]
inhibition at 10 µM [1]: 105% | inhibition at 10 µM [2]: 103%

Cc1cc(S(=O)(=O)N2CCCCC2CCC(=O)N(C)CCC2CCC(c3ccccc3)(N3CCCC3)CC2)c(C)cc1Cl (centres unmarked) [Compound 139, 3-(1-(4-chloro-2,5-dimethylphenylsulfonyl)piperidin-2-yl)-N-methyl-N-(2-(4-phenyl-4-(pyrrolidin-1-yl)cyclohexyl)ethyl)propanamide]
inhibition at 10 µM [1]: 24% | inhibition at 10 µM [2]: 105%

COc1cc(C)c(S(=O)(=O)N(C)CCOCC(=O)N2CCC(c3cccc(F)c3)(N3CCN(C)CC3)CC2)c(C)c1 [Compound 210, N-(2-(2-(4-(3-Fluorophenyl)-4-(4-methylpiperazin-1-yl)piperidin-1-yl)-2-oxoethoxy)ethyl)-4-methoxy-N,2,6-trimethylbenzenesulfonamide]
inhibition at 10 µM [1]: 101% | inhibition at 10 µM [2]: 100%

COc1cc(C)c(S(=O)(=O)N2CCCCC2COCC(=O)N(C)CCCC2CCC(Cc3ccccc3)(N3CCCC3)CC2)c(C)c1 (centres unmarked) [Compound 88, N-(3-(4-benzyl-4-(pyrrolidin-1-yl)cyclohexyl)propyl)-2-((1-(4-methoxy-2,6-dimethylphenylsulfonyl)piperidin-2-yl)methoxy)-N-methylacetamide]
inhibition at 10 µM [1]: 98% | inhibition at 10 µM [2]: 101%

COc1cc(C)c(S(=O)(=O)N2CCCC(OCC(=O)NC3CCC(Cc4ccccc4)(N4CCOCC4)CC3)C2)c(C)c1 (centres unmarked) [Compound 190, N-(4-benzyl-4-morpholinocyclohexyl)-2-(1-(4-methoxy-2,6-dimethylphenylsulfonyl)piperidin-3-yloxy)acetamide]
inhibition at 10 µM [1]: 57% | inhibition at 10 µM [2]: 90%

COc1cc(C)c(S(=O)(=O)N2CCCCC2COCC(=O)N2CCC(Cc3ccccc3)(N3CCN(C)CC3)CC2)c(C)c1 (centres unmarked) [Compound 57, 1-(4-benzyl-4-(4-methylpiperazin-1-yl)piperidin-1-yl)-2-((1-(4-methoxy-2,6-dimethylphenylsulfonyl)piperidin-2-yl)methoxy)ethanone]
inhibition at 10 µM [1]: 100% | inhibition at 10 µM [2]: 100%

O=C(COCC1CCc2ccccc2N1S(=O)(=O)c1ccc(Cl)c(Cl)c1)N1CCC(c2ccccc2)(N2CCN(c3ccncc3)CC2)CC1 (centres unmarked) [Compound 100, 2-((1-(3,4-dichlorophenylsulfonyl)-1,2,3,4-tetrahydroquinolin-2-yl)methoxy)-1-(4-phenyl-4-(4-(pyridin-4-yl)piperazin-1-yl)piperidin-1-yl)ethanone]
inhibition at 10 µM [1]: 88% | inhibition at 10 µM [2]: 51%

Cc1cc(S(=O)(=O)N2CCCCC2CCC(=O)N2CCC(CCc3ccccc3)(N3CCN(C)CC3)CC2)c(C)cc1Cl (centres unmarked) [Compound 122, 3-(1-(4-chloro-2,5-dimethylphenylsulfonyl)piperidin-2-yl)-1-(4-(4-methylpiperazin-1-yl)-4-phenethylpiperidin-1-yl)propan-1-one]
inhibition at 10 µM [1]: 66% | inhibition at 10 µM [2]: 105%

Cc1cccc(Cl)c1S(=O)(=O)N1CCCCC1CCCC(=O)N1CCC(c2cccc(F)c2)(N2CCN(C)CC2)CC1 (centres unmarked) [Compound 212, 4-(1-(2-Chloro-6-methylphenylsulfonyl)piperidin-2-yl)-1-(4-(3-fluorophenyl)-4-(4-methylpiperazin-1-yl)piperidin-1-yl)butan-1-one]
inhibition at 10 µM [1]: 100% | inhibition at 10 µM [2]: 100%

Cc1ccccc1CC1(N(C)C)CCC(NC(=O)CC2c3ccccc3CCN2S(=O)(=O)c2ccc(Cl)c(Cl)c2)CC1 (centres unmarked) [Compound 12, 2-(2-(3,4-dichlorophenylsulfonyl)-1,2,3,4-tetrahydroisoquinolin-1-yl)-N-(4-(dimethylamino)-4-(2-methylbenzyl)cyclohexyl)acetamide]
inhibition at 10 µM [1]: 88% | inhibition at 10 µM [2]: 77%

Cc1cc(S(=O)(=O)N2CCCCC2CCC(=O)N(C)CCC2CCC(c3ccccc3)(N(C)C)CC2)c(C)cc1Cl (centres unmarked) [Compound 107, 3-(1-(4-chloro-2,5-dimethylphenylsulfonyl)piperidin-2-yl)-N-(2-(4-(dimethylamino)-4-phenylcyclohexyl)ethyl)-N-methylpropanamide]
inhibition at 10 µM [1]: 79% | inhibition at 10 µM [2]: 105%

Cc1cc(S(=O)(=O)N2CCCCC2CCC(=O)N2CCC(c3ccc(F)cc3)(N3CCN(C)CC3)CC2)c(C)cc1Cl (centres unmarked) [Compound 138, 3-(1-(4-chloro-2,5-dimethylphenylsulfonyl)piperidin-2-yl)-1-(4-(4-fluorophenyl)-4-(4-methylpiperazin-1-yl)piperidin-1-yl)propan-1-one]
inhibition at 10 µM [1]: 28% | inhibition at 10 µM [2]: 102%

COc1cc(C)c(S(=O)(=O)N2CCCC(COCC(=O)NC3CCC(Cc4ccccc4)(N4CCCC4)CC3)C2)c(C)c1 (centres unmarked) [Compound 180, N-(4-benzyl-4-(pyrrolidin-1-yl)cyclohexyl)-2-((1-(4-methoxy-2,6-dimethylphenylsulfonyl)piperidin-3-yl)methoxy)acetamide]
inhibition at 10 µM [1]: 73% | inhibition at 10 µM [2]: 71%

COc1cc(C)c(S(=O)(=O)N2CCCCC2COCC(=O)NC2CCC(c3ccccc3)(N3CCCC3)CC2)c(C)c1 (centres unmarked) [Compound 147, 2-((1-(4-methoxy-2,6-dimethylphenylsulfonyl)piperidin-2-yl)methoxy)-N-(4-phenyl-4-(pyrrolidin-1-yl)cyclohexyl)acetamide]
inhibition at 10 µM [1]: 108% | inhibition at 10 µM [2]: 94%

CN(CCCC1CCC(Cc2ccccc2)(N2CCCC2)CC1)C(=O)CC1CCCCN1S(=O)(=O)c1cccc(C(F)(F)F)c1 (centres unmarked) [Compound 93, N-(3-(4-benzyl-4-(pyrrolidin-1-yl)cyclohexyl)propyl)-N-methyl-2-(1-(3-(trifluoromethyl)phenylsulfonyl)piperidin-2-yl)acetamide]
inhibition at 10 µM [1]: 94% | inhibition at 10 µM [2]: 98%

COc1cc(C)c(S(=O)(=O)N2CCC(OCC(=O)NC3CCC(c4ccccc4)(N4CCCC4)CC3)C2)c(C)c1 (centres unmarked) [Compound 153, 2-(1-(4-methoxy-2,6-dimethylphenylsulfonyl)pyrrolidin-3-yloxy)-N-(4-phenyl-4-(pyrrolidin-1-yl)cyclohexyl)acetamide]
inhibition at 10 µM [1]: 102% | inhibition at 10 µM [2]: 97%

Cc1cc(S(=O)(=O)N2CCCCC2CCC(=O)N(C)CC2CCC(Cc3ccccc3)(N3CCCC3)CC2)c(C)cc1Cl (centres unmarked) [Compound 129, N-((4-benzyl-4-(pyrrolidin-1-yl)cyclohexyl)methyl)-3-(1-(4-chloro-2,5-dimethylphenylsulfonyl)piperidin-2-yl)-N-methylpropanamide]
inhibition at 10 µM [1]: 52% | inhibition at 10 µM [2]: 104%

COc1cc(C)c(S(=O)(=O)N2CCCCC2COCC(=O)N(C)CCCC2CCC(c3ccccc3)(N3CCCC3)CC2)c(C)c1 (centres unmarked) [Compound 32, 2-((1-(4-methoxy-2,6-dimethylphenylsulfonyl)piperidin-2-yl)methoxy)-N-methyl-N-(3-(4-phenyl-4-(pyrrolidin-1-yl)cyclohexyl)propyl)acetamide]
inhibition at 10 µM [1]: 102% | inhibition at 10 µM [2]: 104%
